In ChEMBL document CHEMBL1129718, “Morphan based substance P antagonists” (Bioorg Med Chem Lett, 1996):

Molecular target: Substance-P receptor (Homo sapiens, UniProt P25103)
Assay: Compound was evaluated for binding affinity towards neurokinin NK1 receptor.

Sequence of Substance-P receptor (P25103 whole entry): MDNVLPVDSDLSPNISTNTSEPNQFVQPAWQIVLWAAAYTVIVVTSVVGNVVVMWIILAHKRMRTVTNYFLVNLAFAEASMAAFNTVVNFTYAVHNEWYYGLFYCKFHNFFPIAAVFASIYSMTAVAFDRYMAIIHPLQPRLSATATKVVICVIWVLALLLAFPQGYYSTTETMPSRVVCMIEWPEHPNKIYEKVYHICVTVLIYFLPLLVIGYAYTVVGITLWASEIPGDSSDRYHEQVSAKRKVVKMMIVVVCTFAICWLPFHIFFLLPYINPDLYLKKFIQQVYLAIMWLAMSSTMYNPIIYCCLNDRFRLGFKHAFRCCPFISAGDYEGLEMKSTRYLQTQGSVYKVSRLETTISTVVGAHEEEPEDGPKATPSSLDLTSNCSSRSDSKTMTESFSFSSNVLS

COc1ccccc1CN[C@H]1C2CCNC1(c1ccccc1)CC=C2C (some centres not stated)
Ki: 0.631 nM

COc1ccccc1CN[C@@H]1C2CCNC1(c1ccccc1)CC=C2C (some centres not stated)
Ki: > 3160 nM
